Assay results published in US20240335490A1, “COMPOSITION FOR PREVENTING OR AMELIORATING LOCOMOTIVE SYNDROME” (DIC Corporation, priority 2021, published 2024).

Columns and labels:
[1] = tested on: male and female subjects who feel a decline in mobility; assay: Joint pain reducing effect questionnaire (0 to 10 scale, pain felt in walking); format: in vivo, human; conditions: conclusion from the results of Table 1
Experimental: (§1) Ingredients were mixed at proportions shown in Table 1 below and subjected to tablet molding to produce tableted products in Examples 1 to 3 and Comparative Examples 1 and 2 in the present invention. As the blended ingredients, commercially available products were used. In order to uniform appearance, Blue No. 2 was added to adjust the color. In each of Examples and Comparative Examples, six tableted products were produced such that the daily intake was 1,800 mg.
(§2) Twenty male and female subjects who feel a decline in mobility in their 40s to 70s were divided into five groups of four subjects each. In each group, two tablets in each of Examples 1, 2, and 3 and Comparative Examples 1 and 2 were taken three times a day in the morning, noon, and evening for four weeks. Two weeks and four weeks after the initiation of the test, the following questionnaires were carried out.
An equal-interval scale of 0 to 10 was prepared, and a score of 5 that is the middle means before the initiation of the test or no change, a score closer to 0 means deterioration, and a score closer to 10 means amelioration. The subjects were made to plot the experience evaluation of the joint pain reducing effect in which the subjects felt in walking. Scores plotted by the subjects were considered to be test evaluation.

[2] = tested on: male and female subjects who feel a decline in mobility; assay: Mobility ameliorating effect questionnaire (0 to 10 scale, ease of walking); format: in vivo, human; conditions: conclusion from the results of Table 1
Experimental: as §1, §2
An equal-interval scale of 0 to 10 was prepared, and a score of 5 that is the middle means no change, a score closer to 0 means that walking is difficult, and a score closer to 10 means that walking is easy. The subjects were made to plot the experience evaluation. Scores plotted by the subjects were considered to be test evaluation.

## phycocyanin
[1]
  effect on the joint (conclusion in words): recognized to exert the effect on the joint
[2]
  mobility ameliorating effect (conclusion in words): recognized to exert
